Reference: patent publication US12486218B2, “Compounds advantageous in the treatment of central nervous system diseases and disorders” (AurimMed Pharma, Inc., priority 2008, dated 2025)
pKi: −log10 of the molar value.

Legend:
[1] = system: rats; experiment: MES test, rats p.o.; assay type: in vivo; conditions: Rattus norvegicus, po
[2] = system: rats; experiment: Lamotrigine-resistant amygdala-kindled rat model (LRM); assay type: in vivo
Text: Resistance to Lamotrigine can be induced in rats by treating them with the drug during the kindling acquisition phase (i.e., during kindling development in the epileptogenesis phase). Subsequently, the fully kindled Lamotrigine-refractory rats (i.e., now fully manifesting seizures) are also resistant (cross-tolerant) to carbamazepine, phenytoin, and topiramate, but not to valproate (or diazepam or the clinical Phase III drug candidate, retigabine).
The Lamotrigine-resistant amygdala-kindled rat model (LRM) may thus serve as an early model of drug-resistant (i.e., pharmacoresistant, refractory) epilepsy to identify novel AEDs for further evaluation in more extensive model systems, including the phenytoin-resistant kindled rat
The LRM thus serves to identify novel broad-spectrum AEDs which may be effective in the treatment of drug-resistant epilepsies. Up to 35% of epilepsy patients continue to suffer from uncontrolled seizures because of their drug-resistant epilepsies.

[3] = system: sodium channels; experiment: Electrophysiology, sodium currents; assay type: cell-based; conditions: at 100 μM, ±S.E.M., 8 cells
Text: The mechanisms of action of many currently marketed anticonvulsant drugs are not fully understood. Although numerous molecular targets exist wherein anticonvulsants may exert an effect, the final common pathway appears to be through modulation of voltage-gated and/or neurotransmitter-gated ion channels. Thus, the common link among the various proposed mechanisms involves the ability of an anticonvulsant to modulate ion channel function. Presently, a number of prototype anticonvulsants are thought to exert their action (at least in part) by reducing sustained, high-frequency repetitive firing of action potentials by modulating voltage-dependent sodium (Na+) channels. The effect of promising candidate substances on voltage-gated Na+ channels can be assessed using state-of-the-art electrophysiological techniques.
The effects of compound H (at a concentration of 100 μM) on sodium currents were evaluated in electrophysiological studies at holding potentials of −60 and −90 mV (using 8 cells). […] By way of comparison, the % of control inhibited for typical sodium-channel-blocking drugs such as phenytoin or lamotrigine is about 50%. […]

[4] = system: rats; experiment: Preliminary Hippocampal Kindling Screening in rats (i.p.); assay type: in vivo; conditions: at 100 mg/kg
[5] = system: rats; experiment: Sciatic nerve ligation model in rats; assay type: in vivo; conditions: 62 mg/kg, at 0.5 hours
Experimental: [The response (threshold for foot withdrawal) was measured in grams.]

[6] = molecular target: CYP-450 2A6 (Homo sapiens, UniProt P11509); experiment: In vitro human CYP-450 study, 2A6; assay type: in vitro ADME; conditions: human enzyme
CYP-450 2A6, sequence (P11509 whole entry): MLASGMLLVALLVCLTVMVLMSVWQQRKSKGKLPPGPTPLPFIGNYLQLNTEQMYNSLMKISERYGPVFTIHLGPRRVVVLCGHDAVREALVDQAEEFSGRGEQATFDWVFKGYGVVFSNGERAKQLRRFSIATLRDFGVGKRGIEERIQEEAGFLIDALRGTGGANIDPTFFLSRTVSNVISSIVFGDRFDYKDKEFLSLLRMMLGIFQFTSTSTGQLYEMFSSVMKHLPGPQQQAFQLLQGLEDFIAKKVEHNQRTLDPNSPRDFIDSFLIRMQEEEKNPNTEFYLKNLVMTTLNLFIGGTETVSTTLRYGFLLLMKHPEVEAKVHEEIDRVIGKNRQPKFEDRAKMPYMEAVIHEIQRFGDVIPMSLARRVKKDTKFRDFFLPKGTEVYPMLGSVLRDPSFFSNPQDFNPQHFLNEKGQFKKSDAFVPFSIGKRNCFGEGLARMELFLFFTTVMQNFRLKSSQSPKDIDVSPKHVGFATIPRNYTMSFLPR
Text: (§1) On the other hand, it is an inhibitor for 2C19, 2D6, 2A6 and 2C9.

[7] = system: CYP2C19, CYP2D6, CYP2A6, CYP2C9; experiment: In vitro human CYP-450 study, Ki values over the enzymes; assay type: in vitro ADME; conditions: range over the enzymes, not assigned to single isoforms
Text: as §1

[8] = system: rats; experiment: Gender Neutral test (kindled rats); assay type: in vivo
[9] = molecular target: CYP-450 2C9 (Homo sapiens, UniProt P11712); experiment: In vitro human CYP-450 study, 2C9; assay type: in vitro ADME; conditions: human enzyme
CYP-450 2C9, sequence (P11712 whole entry): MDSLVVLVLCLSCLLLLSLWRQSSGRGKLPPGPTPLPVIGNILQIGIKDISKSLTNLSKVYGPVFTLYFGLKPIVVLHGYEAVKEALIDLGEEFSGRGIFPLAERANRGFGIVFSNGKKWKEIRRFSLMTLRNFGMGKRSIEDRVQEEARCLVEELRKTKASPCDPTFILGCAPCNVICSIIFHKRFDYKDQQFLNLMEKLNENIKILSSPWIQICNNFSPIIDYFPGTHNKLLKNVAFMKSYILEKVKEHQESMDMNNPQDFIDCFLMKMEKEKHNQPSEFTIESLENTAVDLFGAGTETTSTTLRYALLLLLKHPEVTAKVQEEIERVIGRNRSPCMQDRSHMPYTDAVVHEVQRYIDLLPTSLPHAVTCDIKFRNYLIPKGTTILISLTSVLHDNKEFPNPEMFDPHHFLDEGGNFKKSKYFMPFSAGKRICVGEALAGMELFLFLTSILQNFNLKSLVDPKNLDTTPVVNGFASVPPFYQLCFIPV
Text: as §1

[10] = system: Drosophila; experiment: Rotenone-induced toxicity, Drosophila model of sporadic Parkinson's disease; assay type: in vivo
Text: FIGS. 26A-26C illustrate the effect of compound BX in another Parkinson's disease model. Chronic infusion of rotenone to fruit flies reproduces many features of Parkinson disease. Rotenone is a pesticide that inhibits mitochondrial complex I activity, thus creating an environment of oxidative stress in the cell. Many studies have employed rotenone to generate an experimental animal model of Parkinson's disease (PD) that mimics and elicits PD-like symptoms, such as motor and cognitive decline. […] Compound BX therefore protects Drosophila from the neurotoxic effects of rotenone and may prevent oxidative stress in dopaminergic neurons.

[11] = system: mice; experiment: MPTP-induced Parkinson's disease model in mice, behavioral assays; assay type: in vivo, C57/B16 male mice
Experimental: In FIG. 27A-27C, Data are Illustrated Showing the Effect of Oral Treatment of mice for two weeks with compound BX in an MPTP-induced Parkinson's disease model. MPTP (1-methyl-4-phenyl-1,2,3,6-tetrahydropyridine) is a neurotoxin precursor to MPP+, which causes permanent symptoms of Parkinson's disease by destroying dopaminergic neurons in the substantia nigra of the brain. It has been used to study disease models in various animal studies.
In the study, 9 month-old C57/B16 male mice were treated for 7 days of MPTP injection at a rate of 25 mg/kg dose: once a day. Mice in the treatment group were subsequently treated with 14 days of gavage with compound BX at a rate of 50 μg/gram dose: once a day. Treatment was followed with 5 days of behavioral assays
Mice were scored on the number of legs slips per crossing.
Mice tend to groom more often when they are healthy and feeling content.

[12] = system: dopaminergic neurons of striatum and Substantia Nigra pars compacta; experiment: MPTP-treated mice, immunohistochemical analysis (tyrosine hydroxylase); assay type: in vivo; conditions: two weeks of oral treatment
Experimental: FIGS. 28A and 28B illustrate immunohistochemical analysis of the brains of mice treated with MPTP. As mentioned above, MPTP causes Parkinson's-like symptoms by destroying dopaminergic neurons in the substantia nigra of the brain. Loss of dopaminergic neurons leads to the loss of the neurotransmitter dopamine and the onset of Parkinson's symptoms. In these tests, tyrosine hydroxylase (TH) levels were measured in the Striatum (St) (FIG. 28A) and TH+ dopaminergic neurons in the Substantia Nigra pars compacta (SNpc) were counted (FIG. 28B) to assess the recovery effect of compound BX treatment from chronic MPTP-induced damage.

Compound | ED50 [1] [mg/kg] | activity in the LRM [2] | sodium currents ([3]; holding potential −60 mV) | sodium currents ([3]; holding potential −90 mV) | seizure score, Preliminary Hippocampal Kindling Screening [4] | allodynic threshold [5] | inhibition of CYP-450 2A6 [6] | pKi [7] | efficacy in the two genders [8] | inhibition of CYP-450 2C9 [9] | survival of Drosophila exposed to rotenone ([10]; 500 μM rotenone) | locomotion speed in rotenone-treated flies ([10]; rotenone-treated Drosophila versus mock-treated controls) | hindlimb clasping test, abnormal involuntary movement ([11]; gavage 50 μg/gram once a day for 14 days) | coat grooming test, grooming behavior ([11]; oral treatment for two weeks) | crossbeam test, motor coordination / leg slips ([11]; oral treatment for two weeks) | TH+ dopaminergic neurons in the Substantia Nigra pars compacta [12] | tyrosine hydroxylase (TH) levels in the Striatum [12]
CC(CC(N)=O)c1ccc(OC(F)(F)F)cc1 (racemic) [Compound H, 3-[4-(trifluoromethoxy)-phenyl]butyramide] | 56.7 | active | 91±1 % of control | 98±1 % of control | zero | 455 % of the control | inhibitor | 3.76 to 4.54 | equally efficacious in both genders | inhibitor |  |  |  |  |  |  | 
C[C@H](CC(N)=O)c1ccc(OC(F)(F)F)cc1 (single isomer, unassigned) [Compound BX, R-(−)-3-(4-Trifluoromethoxy-phenyl)butyramide] |  |  |  |  |  |  |  |  |  |  | enhances survival | increases locomotion speed in rotenone-treated flies to a level virtually indistinguishable from mock-treated controls | reduced MPTP-induced abnormal involuntary movement | significantly improved the grooming behavior | significantly improved the motor coordination and reduced the number of leg slips | stimulated the regrowth of TH+ dopaminergic neurons | induce recovery from MPTP-induced damage in striatum
